In test [1] the test system is Pseudomonas aeruginosa. In words: Antibacterial activity against clinical isolates of Pseudomonas aeruginosa PAOA incubated for 20 hrs by two fold dilution method. It counts as functional.
Test [2] has as its system Pseudomonas aeruginosa. In words: Antibiofilm activity against clinical isolates of Pseudomonas aeruginosa PAOA at 16 to 64 ug/ml incubated for 20 hrs by crystal violet staining based spectrophotometric analysis. It counts as functional, organism-based.
Test [3] has as its system Pseudomonas aeruginosa. In words: Antibacterial activity against clinical isolates of Pseudomonas aeruginosa PAOA assessed as inhibition of rhamnolipid secretion at 64 ug/ml. Type of test: functional, organism-based.
Test [4] concerns Pseudomonas aeruginosa. Put plainly: Antibacterial activity against clinical isolates of Pseudomonas aeruginosa PAOA assessed as inhibition of rhamnolipid secretion at 32 ug/ml. Type of test: functional, organism-based.
In test [5] the test system is Pseudomonas aeruginosa. Put plainly: Antibacterial activity against clinical isolates of Pseudomonas aeruginosa PAOA assessed as inhibition of pyocyanine secretion at 64 ug/ml. Type of test: functional, organism-based.

Molecules are shown by their SMILES. Converted amounts (≈) assume the structure as drawn. The source made the active and inactive calls. The rule behind the calls is not given here.

In the case of `C/C=C/CC[C@H]1Cc2cc(O)c(O[C@@H]3O[C@H](CO)[C@@H](OC)[C@H](O)[C@H]3O)c(O)c2C(=O)O1`, the MIC in the test on Pseudomonas aeruginosa [1] is > 128 µg/mL.
For the compound `C/C=C/C=C/[C@H]1Cc2cc(O[C@@H]3O[C@H](CO)[C@@H](OC)[C@H](O)[C@H]3O)cc(O)c2C(=O)O1`, the MIC with Pseudomonas aeruginosa [1] was > 128 µg/mL.
As to `C/C=C/C=C/[C@H]1Cc2cc(O[C@@H]3O[C@H](CO)[C@@H](OC)[C@H](O)[C@H]3O)c(OC)c(O)c2C(=O)O1`, in the test with Pseudomonas aeruginosa [1], the MIC is > 128 µg/mL.
`C/C=C/CC[C@H]1Cc2cc(O[C@@H]3O[C@H](COC(C)=O)[C@@H](OC)[C@H](O)[C@H]3O)c(OC)c(O)c2C(=O)O1`: the outcome in the test with Pseudomonas aeruginosa [2] was Active. Further, the inhibition entry in the test with Pseudomonas aeruginosa [3], with Pseudomonas aeruginosa [4] and in the test with Pseudomonas aeruginosa [5] was “Active” throughout. Also, the MIC in the test with Pseudomonas aeruginosa [1] was > 128 µg/mL.
For the compound `C/C=C/CCc1cc2cc(O[C@@H]3O[C@H](CO)[C@@H](OC)[C@H](O)[C@H]3O)c(OC)c(O)c2c(=O)o1`, in the test with Pseudomonas aeruginosa [1], the MIC was > 128 µg/mL.
On to `C/C=C/CC[C@H]1Cc2cc(O[C@@H]3O[C@H](CO)[C@@H](OC)[C@H](O)[C@H]3O)cc(O)c2C(=O)O1`, for which the MIC in the test on Pseudomonas aeruginosa [1] is > 128 µg/mL.
`C/C=C/CC[C@H]1Cc2c(O)c(O[C@@H]3O[C@H](CO)[C@@H](OC)[C@H](O)[C@H]3O)cc(O)c2C(=O)O1`: the MIC against Pseudomonas aeruginosa [1] was > 128 µg/mL.
As for `C/C=C/CC[C@H]1Cc2cc(O[C@@H]3O[C@H](CO)[C@@H](OC)[C@H](O)[C@H]3O)c(OC)c(O)c2C(=O)O1`, the MIC in the test on Pseudomonas aeruginosa [1] was > 128 µg/mL.
Take `O=C1C=C(Br)/C(=C/Br)O1`: in the test with Pseudomonas aeruginosa [2], the outcome was Active. Further, in the test on Pseudomonas aeruginosa [4], the inhibition entry is “Active”. Besides, in the test with Pseudomonas aeruginosa [1], the MIC is 128 µg/mL (≈ 504 µM).

These data come from ChEMBL document CHEMBL3763150, “New antibacterial isocoumarin glycosides from a wetland soil derived fungal strain Metarhizium anisopliae” (2016).
